{"source": "ChEMBL document CHEMBL5257037", "about": "“Side Chain Cyclized Aromatic Amino Acids: Great Tools as Local Constraints in Peptide and Peptidomimetic Design” (J Med Chem, 2016)", "key": {"[1]": {"target": "T1, B2 bradykinin receptor (Homo sapiens, UniProt P30411)", "T1 sequence (P30411 whole entry)": "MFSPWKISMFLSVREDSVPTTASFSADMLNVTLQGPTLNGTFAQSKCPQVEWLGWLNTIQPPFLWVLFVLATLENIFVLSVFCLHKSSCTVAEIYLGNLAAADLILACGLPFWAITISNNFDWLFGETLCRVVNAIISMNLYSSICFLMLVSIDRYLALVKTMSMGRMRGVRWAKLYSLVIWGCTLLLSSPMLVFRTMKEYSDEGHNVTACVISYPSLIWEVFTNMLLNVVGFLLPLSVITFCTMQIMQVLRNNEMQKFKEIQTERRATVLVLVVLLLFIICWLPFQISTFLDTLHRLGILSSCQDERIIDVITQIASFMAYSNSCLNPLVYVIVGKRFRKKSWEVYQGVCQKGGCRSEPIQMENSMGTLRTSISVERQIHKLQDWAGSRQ", "assay": "Antagonist potency at B2 bradykinin receptor (unknown origin)", "conditions": "read-out: pA2 (converted)"}, "[2]": {"target": "T1, B2 bradykinin receptor", "assay": "Binding affinity to B2 bradykinin receptor (unknown origin)"}, "[3]": {"target": "T2, Angiotensin-converting enzyme (Homo sapiens, UniProt P12821)", "assay": "Binding affinity to angiotensin-converting enzyme (unknown origin) assessed as inhibition constant"}, "[4]": {"target": "Neprilysin (Homo sapiens, UniProt P08473)", "assay": "Binding affinity to neutral endopeptidase (unknown origin) assessed as inhibition constant"}, "[5]": {"assay": "Inhibition of farnesyltransferase (unknown origin)", "set-up": "species or system Homo sapiens"}, "[6]": {"target": "Substance-P receptor (Homo sapiens, UniProt P25103)", "assay": "Inhibition of [3H]SP binding to human neurokinin receptor 1 expressed in CHO cells", "assay_type": "cell-based"}, "[7]": {"target": "T2, Angiotensin-converting enzyme", "assay": "Inhibition of angiotensin-converting enzyme (unknown origin)"}, "[8]": {"target": "Substance-P receptor (Rattus norvegicus, UniProt P14600)", "assay": "Inhibition of [125I]BHSP binding to neurokinin receptor 1 in rat brain synaptosomes", "assay_type": "subcellular, Synaptosome"}}, "note": "*1 amine or outer side, *2 acyl side, *3 side chain or, on linkers, in order; H or OH if unused. Where a SMILES comes first, the peptide text is derived from it. [ ]: non-standard residue; d: D form. Gly(9-fluorenyl) = N[C@H](C(=O)O)C1c2ccccc2-c2ccccc21; X1 = O=C([C@@H](N[*:1])[C@H]1CCc2ccccc21)[*:2]; Tic = O=C(O)[C@@H]1Cc2ccccc2CN1"}
{"compound": "N=C(N)NCCC[C@@H](N)C(=O)N[C@@H](CCCNC(=N)N)C(=O)N1CCC[C@H]1C(=O)N1C[C@H](O)C[C@H]1C(=O)NCC(=O)N[C@@H](Cc1cccs1)C(=O)N[C@@H](CO)C(=O)N1Cc2ccccc2C[C@@H]1C(=O)N1Cc2ccccc2C[C@H]1C(=O)N[C@@H](CCCNC(=N)N)C(=O)O", "values": [{"measurement": "Kb", "setting": "[1]", "result": 0.794, "unit": "nM"}, {"measurement": "Ki", "setting": "[2]; read-out: Ki", "result": 0.38, "unit": "nM"}]}
{"compound": "O=C(CS)N[C@H]1Cc2ccccc2[C@H]2CCC[C@@H](C(=O)O)N2C1=O", "values": [{"measurement": "Ki", "setting": "[3]", "result": 2, "unit": "nM"}, {"measurement": "Ki", "setting": "[4]", "result": 5, "unit": "nM"}]}
{"compound": "N=C(N)NCCC[C@H](NC(=O)CN1Cc2ccccc2C[C@@H](NC(=O)[C@H](CO)NC(=O)[C@H](Cc2ccccc2)NC(=O)CNC(=O)[C@@H]2CCCN2C(=O)[C@@H]2CCCN2C(=O)[C@@H](N)CCCNC(=N)N)C1=O)C(=O)O", "values": [{"measurement": "Ki", "setting": "[2]; read-out: pKi (converted)", "result": 2510, "unit": "nM"}]}
{"compound": "CSCC[C@H](NC(=O)[C@H]1Cc2ccccc2CN1C(=O)[C@@H](NC(=O)[C@H](CS)NC(=O)[C@@H](N)CCCCN)C(C)C)C(=O)O", "values": [{"measurement": "IC50", "setting": "[5]", "result": 100000, "unit": "nM"}]}
{"compound": "CC(=O)N1Cc2[nH]c3ccccc3c2C[C@H]1C(=O)OCc1cc(C(F)(F)F)cc(C(F)(F)F)c1", "values": [{"measurement": "Ki", "setting": "[6]", "result": 390, "unit": "nM"}]}
{"compound": "CSCC[C@H](NC(=O)C1CC=CCN1C(=O)[C@@H](NC[C@@H](N)CS)C(C)C)C(=O)O", "note": "(some centres undefined)", "values": [{"measurement": "IC50", "setting": "[5]", "result": 270, "unit": "nM"}]}
{"compound": "C[C@H](N[C@@H](CCc1ccccc1)C(=O)O)C(=O)N1CCc2ccccc2[C@H]1C(=O)O", "values": [{"measurement": "IC50", "setting": "[7]", "result": 5.8, "unit": "nM"}]}
{"compound": "CSCC[C@H](NC(=O)[C@H]1Cc2ccccc2CN1C(=O)[C@H](C(C)C)N(C)C(=O)[C@H](CS)NC(=O)[C@@H](N)CCCCN)C(=O)O", "values": [{"measurement": "IC50", "setting": "[5]", "result": 5, "unit": "nM"}]}
{"compound": "CSCC[C@H](NC(=O)[C@H](Cc1ccccc1)NC(=O)[C@@H](NC(=O)[C@H](CS)NC(C)=O)C(C)C)C(=O)O", "note": "(Ac-CVFM-OH)", "values": [{"measurement": "IC50", "setting": "[5]", "result": 250, "unit": "nM"}]}
{"compound": "CSCC[C@H](NC(=O)[C@@H]1Cc2ccccc2CN1C(=O)[C@@H](NC(=O)[C@H](CS)NC(C)=O)C(C)C)C(=O)O", "note": "(Ac-CV[Tic]M-OH)", "values": [{"measurement": "IC50", "setting": "[5]", "result": 11, "unit": "nM"}]}
{"compound": "CSCC[C@H](NC(=O)[C@@H]1Cc2ccccc2CN1C(=O)[C@@H](NC(=O)[C@@H](N)CS)C(C)C)C(=O)O", "note": "(H-CV[Tic]M-OH)", "values": [{"measurement": "IC50", "setting": "[5]", "result": 1, "unit": "nM"}]}
{"compound": "CC[C@H](C)[C@H](NC(=O)CNC(=O)[C@@H](NC(=O)[C@H](Cc1ccccc1)NC(=O)[C@H](CCC(N)=O)NC(=O)[C@H](CCC(=O)O)NC(=O)[C@H](CCCCN)NC(=O)[C@@H]1CCCN1C(=O)[C@@H](N)CCCNC(=N)N)C1c2ccccc2-c2ccccc21)C(=O)N[C@@H](CCSC)C(=O)O", "note": "(H-RPKEQF[Gly(9-fluorenyl)]GIM-OH)", "values": [{"measurement": "IC50", "setting": "[8]", "result": 3, "unit": "nM"}]}
{"compound": "CC[C@H](C)[C@H](NC(=O)CNC(=O)[C@@H]1Cc2ccccc2CN1C(=O)[C@H](Cc1ccccc1)NC(=O)[C@H](CCC(N)=O)NC(=O)[C@H](CCC(=O)O)NC(=O)[C@H](CCCCN)NC(=O)[C@@H]1CCCN1C(=O)[C@@H](N)CCCNC(=N)N)C(=O)N[C@@H](CCSC)C(=O)O", "note": "(H-RPKEQF[Tic]GIM-OH)", "values": [{"measurement": "IC50", "setting": "[8]", "result": 1200, "unit": "nM"}]}
{"compound": "CC[C@H](C)[C@H](NC(=O)CNC(=O)[C@H](Cc1ccccc1)NC(=O)[C@@H]1Cc2ccccc2CN1C(=O)[C@H](CCC(N)=O)NC(=O)[C@H](CCC(=O)O)NC(=O)[C@H](CCCCN)NC(=O)[C@@H]1CCCN1C(=O)[C@@H](N)CCCNC(=N)N)C(=O)N[C@@H](CCSC)C(=O)O", "note": "(H-RPKEQ[Tic]FGIM-OH)", "values": [{"measurement": "IC50", "setting": "[8]", "result": 2400, "unit": "nM"}]}
{"compound": "CC[C@H](C)[C@H](NC(=O)CNC(=O)[C@H](Cc1ccccc1)NC(=O)[C@@H](NC(=O)[C@H](CCC(N)=O)NC(=O)[C@H](CCC(=O)O)NC(=O)[C@H](CCCCN)NC(=O)[C@@H]1CCCN1C(=O)[C@@H](N)CCCNC(=N)N)[C@H]1CCc2ccccc21)C(=O)N[C@@H](CCSC)C(=O)O", "note": "(H-RPKEQ[X1]FGIM-OH)", "values": [{"measurement": "IC50", "setting": "[8]", "result": 3, "unit": "nM"}]}
{"compound": "N=C(N)NCCC[C@H](NC(=O)CN1Cc2ccccc2CC(NC(=O)[C@H](CO)NC(=O)[C@H](Cc2ccccc2)NC(=O)CNC(=O)[C@@H]2CCCN2C(=O)[C@@H]2CCCN2C(=O)[C@@H](N)CCCNC(=N)N)C1=O)C(=O)O", "note": "(mixture of isomers)", "values": [{"measurement": "Ki", "setting": "[2]; read-out: pKi (converted)", "result": 794, "unit": "nM"}]}
{"compound": "N=C(N)NCCCC(NC(=O)CN1CCCCC2(CCCN2C(=O)[C@H](CO)NC(=O)[C@H](Cc2ccccc2)NC(=O)CNC(=O)[C@@H]2CCCN2C(=O)[C@@H]2CCCN2C(=O)[C@@H](N)CCCNC(=N)N)C1=O)C(=O)O", "note": "(mixture of isomers; 67)", "values": [{"measurement": "Ki", "setting": "[2]; read-out: pKi (converted)", "result": 1260, "unit": "nM"}]}
{"compound": "N=C(N)NCCCC(NC(=O)CN1CCCCC2(CCCN2C(=O)[C@H](CO)NC(=O)[C@H](Cc2ccccc2)NC(=O)CNC(=O)[C@@H]2CCCN2C(=O)[C@@H]2CCCN2C(=O)[C@@H](N)CCCNC(=N)N)C1=O)C(=O)O", "note": "(mixture of isomers; 68)", "values": [{"measurement": "Ki", "setting": "[2]; read-out: pKi (converted)", "result": 251, "unit": "nM"}]}
{"compound": "O=C(O)CN1C(=O)[C@@H](N[C@@H](CCc2ccccc2)C(=O)O)CCc2ccccc21", "note": "[BENAZEPRILAT]", "values": [{"measurement": "IC50", "setting": "[7]", "result": 1.7, "unit": "nM"}]}
{"compound": "CCC[C@H](N[C@@H](C)C(=O)N1[C@H](C(=O)O)C[C@@H]2CCCC[C@@H]21)C(=O)OCC", "note": "[PERINDOPRIL]", "values": [{"measurement": "IC50", "setting": "[7]", "result": 3.6, "unit": "nM"}]}
{"compound": "H-KCVFM-OH", "values": [{"measurement": "IC50", "setting": "[5]", "result": 1000, "unit": "nM"}]}
{"compound": "H-RPKEQFFGIM-OH", "values": [{"measurement": "IC50", "setting": "[8]", "result": 0.64, "unit": "nM"}]}
